These results are taken from patent US20050074879A1, “Antisense oligonucleotide modulation of STAT3 expression” (priority 2000, published 2005).

Oligonucleotides are written 5' to 3', each unit as a sugar letter and its base; * is a phosphorothioate linkage, no mark a phosphodiester; rarer units and linkages stand in square brackets, end groups in braces. Plain capitals give the bases only. e = 2'-O-(2-methoxyethyl) (MOE); [5mC] = 5-methylcytosine; d = 2'-deoxy (DNA)

This data set deals with Human STAT3 mRNA. The data set is described as follows: Inhibition of human STAT3 mRNA levels in A549 cells, 75 nM, real-time PCR (Table 13). The class given is cell-based. Conditions: 75 nM oligonucleotide with LIPOFECTIN, real-time PCR PPS 199, percent inhibition relative to untreated control cells, average of 2 experiments. On the procedure: Oligonucleotide activity is assayed by quantitation of STAT3 mRNA levels by real-time PCR (RT-PCR) using the ABI PRISMS 7700 Sequence Detection System (PE-Applied Biosystems, Foster City, Calif.) according to manufacturer's instructions. This is a closed-tube, non-gel-based, fluorescence detection system which allows high-throughput quantitation of polymerase chain reaction (PCR) products in real-time. As opposed to standard PCR, in which amplification products are quantitated after the PCR is completed, products in RT-PCR are quantitated as they accumulate. This is accomplished by including in the PCR reaction an oligonucleotide probe that anneals specifically between the forward and reverse PCR primers, and contains two fluorescent dyes. A reporter dye (e.g., JOE or FAM, PE-Applied Biosystems, Foster City, Calif.) is attached to the 5′ end of the probe and a quencher dye (e.g., TAMRA, PE-Applied Biosystems, Foster City, Calif.) is attached to the 3′ end of the probe. When the probe and dyes are intact, reporter dye emission is quenched by the proximity of the 3′ quencher dye. During amplification, annealing of the probe to the target sequence creates a substrate that can be cleaved by the 5′-exonuclease activity of Taq polymerase. […] With each cycle, additional reporter dye molecules are cleaved from their respective probes, and the fluorescence intensity is monitored at regular (six-second) intervals by laser optics built into the ABI PRISM™ 7700 Sequence Detection System. In each assay, a series of parallel reactions containing serial dilutions of mRNA from untreated control samples generates a standard curve that is used to quantitate the percent inhibition after antisense oligonucleotide treatment of test samples.
RT-PCR reagents are obtained from PE-Applied Biosystems, Foster City, Calif. RT-PCR reactions are carried out by adding 25 l PCR cocktail (1× TAQMAN7 buffer A, 5.5 mM MgCl2, 300 µM each of DATP, dCTP and dGTP, 600 µM of dUTP, 100 nM each of forward primer, reverse primer, and probe, 20 U RNAse inhibitor, 1.25 units AMPLITAQ GOLD7, and 12.5 U MuLV reverse transcriptase) to 96 well plates containing 25 l poly(A) mRNA solution. The RT reaction is carried out by incubation for 30 minutes at 48° C. following a 10 minute incubation at 95° C. to activate the AMPLITAQ GOLD7, 40 cycles of a two-step PCR protocol are carried out: 95° C. for 15 seconds (denaturation) followed by 60° C. for 1.5 minutes (annealing/extension).
The compounds were analyzed for their effect on STAT3 mRNA levels in A549 cells. The human lung carcinoma cell line A549 was obtained from the American Type Culture Collection (ATCC) (Manassas, Va.). A549 cells were routinely cultured in DMEM basal media (Invitrogen Corporation, Carlsbad, Calif.) supplemented with 10% fetal calf serum (Invitrogen Corporation, Carlsbad, Calif.), 100 units/mL penicillin, and 100 ug/mL streptomycin (Invitrogen Corporation, Carlsbad, Calif.). Cells were routinely passaged by trypsinization and dilution when they reached 90% confluence.
When cells reached 65-75% confluency, they were treated with oligonucleotide. For cells grown in 96-well plates, wells were washed once with […] OPTI-MEM-1 reduced-serum medium (Invitrogen Corporation, Carlsbad, Calif.) and then treated with 130 µL of OPTI-MEM-1 containing […] LIPOFECTIN (Invitrogen Corporation, Carlsbad, Calif.) and 75 nM of the compounds in Table 13. Cells were treated and data were obtained in duplicate. Untreated cells served as controls. After 4-7 hours of treatment at 37° C., the medium was replaced with fresh medium. Cells were harvested 16-24 hours after oligonucleotide treatment. STAT3 mRNA levels in A549 cells were quantitated by real-time PCR as described by other methods herein.
Probes and primers to human STAT3 were designed to hybridize to a human STAT3 sequence, using published sequence information (incorporated herein as SEQ ID NO: 1). For STAT 3 the PCR primers were: • forward primer: […]

With “337314 (antisense e[5mC]*eT*e[5mC]*eA*eA*dA*dG*dG*dT*dG*dA*dT*d[5mC]*dA*dG*eG*eT*eG*e[5mC]*eA) [compound 337314]”, the “% Inhib (inhibition of human STAT 3 mRNA levels)” value (“% Inhib” for short) was 75%.

In the case of “337265 (antisense e[5mC]*eG*eA*e[5mC]*eT*d[5mC]*dT*dT*dG*d[5mC]*dA*dG*dG*dA*dA*eG*e[5mC]*eG*eG*e[5mC]) [compound 337265]”, the “% Inhib” value was determined as 92%.

Consider “337294 (antisense e[5mC]*eT*e[5mC]*eT*eT*d[5mC]*d[5mC]*dA*dG*dT*d[5mC]*dA*dG*d[5mC]*d[5mC]*eA*eG*e[5mC]*eT*e[5mC]) [compound 337294]”, for which the “% Inhib” value is on record as 75%.

For “337323 (antisense eT*eG*eG*e[5mC]*eA*dT*d[5mC]*dT*dG*dA*d[5mC]*dA*dG*dA*dT*eG*eT*eT*eG*eG) [compound 337323]”, the “% Inhib” value is on record as 79%.

“337327 (antisense eT*e[5mC]*e[5mC]*e[5mC]*eA*dA*dG*dA*dG*dT*dT*dT*d[5mC]*dT*d[5mC]*eT*eG*e[5mC]*e[5mC]*eA) [compound 337327]”: the “% Inhib” value came out at 84%.

For “337249 (antisense eT*eT*eG*eG*eG*d[5mC]*d[5mC]*dA*dT*d[5mC]*d[5mC]*dT*dG*d[5mC]*dT*eA*eA*eA*eA*eT) [compound 337249]”, the “% Inhib” value stood at 48%.

In the case of “337254 (antisense e[5mC]*eT*eT*eG*eT*dT*d[5mC]*d[5mC]*d[5mC]*dT*d[5mC]*dG*dG*d[5mC]*dT*eG*e[5mC]*eG*eA*e[5mC]) [compound 337254]”, the “% Inhib” value is 57%.

For “337316 (antisense eT*e[5mC]*eA*eA*eT*d[5mC]*dT*dT*dG*dA*dG*dG*d[5mC]*d[5mC]*dT*eT*eG*eG*eT*eG) [compound 337316]”, the “% Inhib” value came to 59%.

On to “337263 (antisense eT*e[5mC]*eT*eT*eG*dA*d[5mC]*dT*d[5mC]*dT*d[5mC]*dA*dA*dT*d[5mC]*e[5mC]*eA*eA*eG*eG) [compound 337263]”, for which the “% Inhib” value was determined as 79%.

Take “337334 (antisense e[5mC]*e[5mC]*e[5mC]*eA*eG*dA*dA*dG*dG*dA*dG*dA*dA*dG*d[5mC]*e[5mC]*e[5mC]*eT*eT*eG) [compound 337334]”: the “% Inhib” value is given as 85%.

In the case of “337375 (antisense eA*e[5mC]*e[5mC]*eA*eG*dG*dA*dG*dG*d[5mC]*dA*d[5mC]*dT*dT*dG*eT*e[5mC]*eT*eA*eA) [compound 337375]”, the “% Inhib” value amounted to 89%.

For “337343 (antisense eT*eG*eA*eT*e[5mC]*dT*dT*dA*dT*dA*dG*d[5mC]*d[5mC]*d[5mC]*dA*eT*eG*eA*eT*eG) [compound 337343]”, the “% Inhib” value came to 84%.

As for “337267 (antisense eA*eG*eA*eA*eA*d[5mC]*dT*dG*d[5mC]*dT*dT*dG*dA*dT*dT*e[5mC]*eT*eT*e[5mC]*eG) [compound 337267]”, the “% Inhib” value came out at 62%.

Consider “337289 (antisense eT*e[5mC]*e[5mC]*eA*eG*d[5mC]*dT*dG*d[5mC]*dT*dG*d[5mC]*dA*dT*d[5mC]*eT*eT*e[5mC]*eT*eG) [compound 337289]”, for which the “% Inhib” value is 83%.

Turning to “337320 (antisense e[5mC]*eT*eG*eG*e[5mC]*dA*dA*dG*dG*dA*dG*dT*dG*dG*dG*eT*e[5mC]*eT*e[5mC]*eT) [compound 337320]”, the “% Inhib” value came out at 74%.

As for “337317 (antisense e[5mC]*eT*eA*eG*eG*dT*d[5mC]*dA*dA*dT*d[5mC]*dT*dT*dG*dA*eG*eG*e[5mC]*e[5mC]*eT) [compound 337317]”, the “% Inhib” value came to 55%.

For the substance “337271 (antisense eG*eT*eG*eA*eT*dT*d[5mC]*dT*dT*d[5mC]*d[5mC]*d[5mC]*dA*d[5mC]*dA*eG*eG*e[5mC]*eA*e[5mC]) [compound 337271]”, the “% Inhib” value was 85%.

Turning to “337295 (antisense eT*eG*e[5mC]*e[5mC]*eG*d[5mC]*d[5mC]*dT*d[5mC]*dT*dT*d[5mC]*d[5mC]*dA*dG*eT*e[5mC]*eA*eG*e[5mC]) [compound 337295]”, the “% Inhib” value was 82%.

On to “337275 (antisense eT*eT*e[5mC]*eT*eG*dT*dT*d[5mC]*dT*dA*dG*dA*dT*d[5mC]*d[5mC]*eT*eG*e[5mC]*eA*e[5mC]) [compound 337275]”, for which the “% Inhib” value was 82%.

Take “337292 (antisense eT*eT*e[5mC]*eT*eG*d[5mC]*dA*d[5mC]*dG*dT*dA*d[5mC]*dT*d[5mC]*d[5mC]*eA*eT*e[5mC]*eG*e[5mC]) [compound 337292]”: the “% Inhib” value turned out to be 81%.

As for “337264 (antisense e[5mC]*eG*e[5mC]*eA*eT*dA*dT*dG*d[5mC]*d[5mC]*d[5mC]*dA*dA*dT*d[5mC]*eT*eT*eG*eA*e[5mC]) [compound 337264]”, the “% Inhib” value was 81%.

Consider “337367 (antisense eA*eA*eA*eG*eT*dG*d[5mC]*d[5mC]*d[5mC]*dA*dG*dA*dT*dT*dG*e[5mC]*eT*e[5mC]*eA*eA) [compound 337367]”, for which the “% Inhib” value is recorded as 82%.

For the substance “337283 (antisense eT*eG*eA*e[5mC]*eT*d[5mC]*dT*dT*dG*dA*dG*dG*dG*dT*dT*eT*eT*eA*eT*eA) [compound 337283]”, the “% Inhib” value is recorded as 71%.

For “337370 (antisense eT*eG*e[5mC]*eA*eT*dT*dT*dA*dG*dA*dT*dA*dA*dA*dA*eG*e[5mC]*eA*eG*eA) [compound 337370]”, the “% Inhib” value was 78%.

In the case of “337339 (antisense eA*eG*e[5mC]*eA*eA*dA*dT*dG*dA*d[5mC]*dA*dT*dG*dT*dT*eG*eT*eT*e[5mC]*eA) [compound 337339]”, the “% Inhib” value was 84%.

Regarding “337324 (antisense eG*e[5mC]*eA*eT*eT*dT*dG*dG*d[5mC]*dA*dT*d[5mC]*dT*dG*dA*e[5mC]*eA*eG*eA*eT) [compound 337324]”, the “% Inhib” value is listed as 79%.

On to “337261 (antisense eT*eG*eT*e[5mC]*eA*dA*dG*d[5mC]*dT*dG*d[5mC]*dT*dG*dT*dA*eG*e[5mC]*eT*eG*eA) [compound 337261]”, for which the “% Inhib” value is 79%.

Take “337361 (antisense e[5mC]*eA*eA*eA*e[5mC]*dT*dG*d[5mC]*dA*dT*d[5mC]*dA*dA*dT*dG*eA*eA*eT*e[5mC]*eT) [compound 337361]”: the “% Inhib” value is reported as 61%.

“337382 (antisense eG*eG*e[5mC]*eT*eT*dA*dG*dA*dT*dA*dG*dT*d[5mC]*d[5mC]*dT*eA*eT*e[5mC]*eT*eT) [compound 337382]”: the “% Inhib” value is listed as 84%.

Turning to “337319 (antisense eA*eA*eG*eG*eA*dG*dT*dG*dG*dG*dT*d[5mC]*dT*d[5mC]*dT*eA*eG*eG*eT*e[5mC]) [compound 337319]”, the “% Inhib” value stood at 38%.

On to “337255 (antisense eG*e[5mC]*e[5mC]*eT*eG*dT*d[5mC]*d[5mC]*dA*dG*dG*dA*dT*d[5mC]*d[5mC]*eG*eG*eT*eT*eG) [compound 337255]”, for which the “% Inhib” value worked out at 75%.
